We go through 33 compounds from patent publication US9029546B2, “Pyrazolopyridine kinase inhibitors” (Vertex Pharmaceuticals Incorporated, priority 2008, dated 2015).

SMILES strings stand for the structures.

One assay addresses PKC theta kinase (Homo sapiens, UniProt Q04759). The assay can be described thus: PKC theta coupled-enzyme kinase assay (NADH consumption). In kind it is biochemical. The note with it: 240 μM ATP, 30° C. The procedure: (§1) An assay buffer solution was prepared which consisted of 100 mM HEPES (pH 7.5), 10 mM MgCl2, 25 mM NaCl, 0.1 mM EDTA and 0.01% Brij. An enzyme buffer containing reagents to final assay concentrations of 0.00001% Triton X-100, 200 μg/mL Phosphatidylserine, 20 μg/mL Diacylglycerol, 360 μM NADH, 3 mM phosphoenolpyruvate, 70 μg/mL pyruvate kinase, 24 μg/mL lactate dehydrogenase, 2 mM DTT, 100 μM substrate peptide (ERMRPRKRQGSVRRRV (SEQ ID NO: 1)) and 18 nM PKC theta kinase was prepared in assay buffer. To 60 μL of this enzyme buffer, in a 384 well plate, was added 2 μL of VRT stock solution in DMSO. The mixture was allowed to equilibrate for 10 mins at 30° C. The enzyme reaction was initiated by the addition of 5 μL stock ATP solution prepared in assay buffer to a final assay concentration of 240 μM. Initial rate data was determined from the rate of change of absorbance at 340 nm (corresponding to stoichiometric consumption of NADH) using a Molecular Devices Spectramax plate reader (Sunnyvale, Calif.) over 15 mins at 30° C. For each Ki determination 12 data points covering the VRT concentration range of 0-20 μM were obtained in duplicate (DMSO stocks were prepared from an initial 10 mM VRT stock with subsequent 1:2 serial dilutions). Ki values were calculated from initial rate data by non-linear regression using the Prism software package (Prism 4.0a, Graphpad Software, San Diego, Calif.).

The next assay addresses PKC Delta (Homo sapiens, UniProt Q05655). Description: PKC delta coupled-enzyme kinase assay (NADH consumption). Type of assay: biochemical. Conditions: 240 μM ATP, 30° C. The procedure: [The source words this procedure for another target and reports this target under the same test.] as §1

Sequence of PKC theta kinase (Q04759 whole entry): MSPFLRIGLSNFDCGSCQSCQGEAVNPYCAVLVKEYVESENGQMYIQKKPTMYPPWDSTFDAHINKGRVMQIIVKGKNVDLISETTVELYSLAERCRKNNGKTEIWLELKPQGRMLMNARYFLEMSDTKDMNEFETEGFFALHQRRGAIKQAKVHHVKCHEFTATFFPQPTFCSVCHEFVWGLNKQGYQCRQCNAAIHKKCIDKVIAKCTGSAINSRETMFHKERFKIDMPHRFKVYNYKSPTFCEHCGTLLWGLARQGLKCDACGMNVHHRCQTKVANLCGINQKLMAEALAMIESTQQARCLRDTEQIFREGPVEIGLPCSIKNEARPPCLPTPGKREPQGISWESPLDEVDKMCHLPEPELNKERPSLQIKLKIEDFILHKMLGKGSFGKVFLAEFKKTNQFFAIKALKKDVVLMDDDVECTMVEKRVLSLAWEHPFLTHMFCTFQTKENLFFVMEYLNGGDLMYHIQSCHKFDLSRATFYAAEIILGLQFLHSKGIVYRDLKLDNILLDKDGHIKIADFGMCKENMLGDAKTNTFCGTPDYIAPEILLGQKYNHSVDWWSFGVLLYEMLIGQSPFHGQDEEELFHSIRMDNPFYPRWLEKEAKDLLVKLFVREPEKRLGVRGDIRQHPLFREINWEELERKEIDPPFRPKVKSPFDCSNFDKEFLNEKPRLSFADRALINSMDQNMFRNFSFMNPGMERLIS
Sequence of PKC Delta (Q05655 whole entry): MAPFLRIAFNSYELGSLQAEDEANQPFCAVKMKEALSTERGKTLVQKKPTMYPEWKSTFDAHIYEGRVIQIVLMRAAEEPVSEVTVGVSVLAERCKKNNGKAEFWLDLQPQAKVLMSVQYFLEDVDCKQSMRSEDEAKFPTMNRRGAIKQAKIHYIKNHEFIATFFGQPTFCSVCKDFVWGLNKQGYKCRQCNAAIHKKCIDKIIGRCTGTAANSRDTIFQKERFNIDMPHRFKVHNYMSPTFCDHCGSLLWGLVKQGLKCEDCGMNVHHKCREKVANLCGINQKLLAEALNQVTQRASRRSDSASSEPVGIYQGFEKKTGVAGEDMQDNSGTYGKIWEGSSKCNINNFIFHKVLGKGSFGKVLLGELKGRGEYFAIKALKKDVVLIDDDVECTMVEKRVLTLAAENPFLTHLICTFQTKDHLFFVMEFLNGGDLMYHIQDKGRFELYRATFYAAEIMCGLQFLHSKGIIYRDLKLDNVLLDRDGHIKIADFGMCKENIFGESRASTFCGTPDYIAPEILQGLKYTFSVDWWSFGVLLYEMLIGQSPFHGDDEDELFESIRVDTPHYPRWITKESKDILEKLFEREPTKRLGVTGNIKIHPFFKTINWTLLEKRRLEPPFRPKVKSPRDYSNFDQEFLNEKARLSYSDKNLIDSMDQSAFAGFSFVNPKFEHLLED

In the case of `CC(C)(CN)COc1ccc(C(F)(F)F)c(-c2n[nH]c3ncccc23)n1` [Compound 54], the Ki at PKC theta kinase and at PKC Delta was greater than 0.7 µM in each case.
Consider `CN1CCCC(COc2ccc(C(F)(F)F)c(-c3n[nH]c4ncccc34)n2)C1` (stereo not drawn) [Compound 55], for which the inhibitory constant (Ki) on PKC theta kinase and at PKC Delta was greater than 0.7 µM each time.
As for `CCN1CCC(Oc2ccc(C(F)(F)F)c(-c3n[nH]c4ncccc34)n2)C1` (stereo not drawn) [Compound 56], the Ki on PKC theta kinase and at PKC Delta was greater than 0.7 µM throughout.
As for `CC(N)(CO)COc1ccc(C(F)(F)F)c(-c2n[nH]c3ncccc23)n1` (stereo not drawn) [Compound 57], the inhibitory constant (Ki) on PKC theta kinase and at PKC Delta was greater than 0.7 µM throughout.
Regarding `CN(CCO)c1ccc(C(F)(F)F)c(-c2n[nH]c3ncccc23)n1` [Compound 58], the Ki on PKC theta kinase and on PKC Delta was greater than 0.7 µM throughout.
For `NC1CCC(Oc2ccc(C(F)(F)F)c(-c3n[nH]c4ncccc34)n2)CC1` (stereo not drawn) [Compound 59], the Ki at PKC theta kinase and at PKC Delta was greater than 0.7 µM throughout.
With `FC(F)(F)c1ccc(NCCN2CCCC2)nc1-c1n[nH]c2ncccc12` [Compound 60], the Ki on PKC theta kinase and on PKC Delta was greater than 0.7 µM each time.
In the case of `NC1CCCC(Nc2cccc(-c3n[nH]c4ncccc34)n2)C1` (stereo not drawn) [Compound 61], the inhibition constant Ki on PKC theta kinase and at PKC Delta was less than 0.05 µM each time.
On to `N#CCNc1ccc(C(F)(F)F)c(-c2n[nH]c3ncccc23)n1` [Compound 62], for which the inhibition constant Ki on PKC theta kinase and on PKC Delta was greater than 0.7 µM in each case.
As to `FC(F)(F)c1ccc(NC2CNC2)nc1-c1n[nH]c2ncccc12` [Compound 63], the Ki at PKC theta kinase and at PKC Delta was greater than 0.7 µM in each case.
Consider `Fc1ccc(NC2CNC2)nc1-c1n[nH]c2ncccc12` [Compound 64], for which the Ki on PKC theta kinase and on PKC Delta was greater than 0.7 µM in each case.
Regarding `CCC(CN)(CNc1ccc(C(F)(F)F)c(-c2n[nH]c3ncccc23)n1)c1ccccc1` (stereo not drawn) [Compound 65], the Ki at PKC theta kinase and on PKC Delta was less than 0.5 µM in each case.
Turning to `FC(F)(F)c1ccc(NCC2CNC2)nc1-c1n[nH]c2ncccc12` [Compound 66], the Ki at PKC theta kinase and on PKC Delta was greater than 0.7 µM each time.
Turning to `CC(C)CC1(CNc2ccc(C(F)(F)F)c(-c3n[nH]c4ncccc34)n2)CNC1` [Compound 67], the Ki at PKC theta kinase and at PKC Delta was less than 0.05 µM each time.
Regarding `CC(C)CC1(CNc2ccc(F)c(-c3n[nH]c4ncccc34)n2)CNC1` [Compound 68], the Ki on PKC theta kinase and on PKC Delta was less than 0.05 µM throughout.
Regarding `CCN1CCCC(Oc2ccc(C(F)(F)F)c(-c3n[nH]c4ncccc34)n2)C1` (stereo not drawn) [Compound 69], the inhibition constant (Ki) on PKC theta kinase and at PKC Delta was greater than 0.7 µM in each case.
`Nc1cc(Cl)cc(Nc2ccc(C(F)(F)F)c(-c3n[nH]c4ncccc34)n2)c1` [Compound 70]: the inhibitory constant (Ki) on PKC theta kinase and at PKC Delta was less than 0.5 µM in each case.
With `FC(F)(F)c1ccc(NC2CN3CCC2CC3)nc1-c1n[nH]c2ncccc12` (stereo not drawn) [Compound 71], the Ki at PKC theta kinase and on PKC Delta was greater than 0.7 µM throughout.
Take `CC(C)(C)[C@H](N)COc1ccc(C(F)(F)F)c(-c2n[nH]c3ncccc23)n1` [Compound 72]: the Ki at PKC theta kinase and on PKC Delta was greater than 0.7 µM each time.
Consider `CC(CO)Nc1ccc(C(F)(F)F)c(-c2n[nH]c3ncccc23)n1` (stereo not drawn) [Compound 73], for which the Ki at PKC theta kinase and on PKC Delta was greater than 0.7 µM in each case.
`FC(F)(F)c1ccc(OC[C@@H]2CCCN3CCCC[C@@H]23)nc1-c1n[nH]c2ncccc12` [Compound 74]: the Ki on PKC theta kinase and on PKC Delta was greater than 0.7 µM throughout.
Regarding `CN(CCC#N)c1ccc(C(F)(F)F)c(-c2n[nH]c3ncccc23)n1` [Compound 75], the inhibition constant Ki on PKC theta kinase and at PKC Delta was less than 0.5 µM throughout.
As to `OCCN(CCO)c1ccc(C(F)(F)F)c(-c2n[nH]c3ncccc23)n1` [Compound 76], the inhibition constant (Ki) at PKC theta kinase and at PKC Delta was greater than 0.7 µM in each case.
On to `OC[C@H](Cc1ccccc1)Nc1ccc(C(F)(F)F)c(-c2n[nH]c3ncccc23)n1` [Compound 77], for which the inhibitory constant (Ki) on PKC theta kinase and at PKC Delta was greater than 0.7 µM in each case.
As to `OCc1cccc(Nc2ccc(C(F)(F)F)c(-c3n[nH]c4ncccc34)n2)c1` [Compound 78], the Ki on PKC theta kinase and on PKC Delta was greater than 0.7 µM in each case.
In the case of `OC[C@H](Nc1ccc(C(F)(F)F)c(-c2n[nH]c3ncccc23)n1)c1ccccc1` [Compound 79], the Ki at PKC theta kinase and at PKC Delta was less than 0.5 µM throughout.
With `CCC(CO)Nc1ccc(C(F)(F)F)c(-c2n[nH]c3ncccc23)n1` (stereo not drawn) [Compound 80], the inhibition constant Ki at PKC theta kinase and on PKC Delta was greater than 0.7 µM throughout.
`O[C@H]1CC[C@H](Nc2ccc(C(F)(F)F)c(-c3n[nH]c4ncccc34)n2)CC1` [Compound 81]: the Ki on PKC theta kinase and on PKC Delta was greater than 0.7 µM each time.
As to `OCCNc1ccc(C(F)(F)F)c(-c2n[nH]c3ncccc23)n1` [Compound 82], the inhibition constant (Ki) on PKC theta kinase and at PKC Delta was greater than 0.7 µM throughout.
Turning to `CCC(O)CNc1ccc(C(F)(F)F)c(-c2n[nH]c3ncccc23)n1` (stereo not drawn) [Compound 83], the inhibition constant Ki on PKC theta kinase and at PKC Delta was greater than 0.7 µM throughout.
`OC1CCCCC1Nc1ccc(C(F)(F)F)c(-c2n[nH]c3ncccc23)n1` (stereo not drawn) [Compound 84]: the inhibitory constant (Ki) at PKC theta kinase and on PKC Delta was greater than 0.7 µM in each case.
As to `FC(F)(F)c1ccc(N[C@@H]2CCc3ccccc32)nc1-c1n[nH]c2ncccc12` [Compound 85], the Ki at PKC theta kinase and on PKC Delta was greater than 0.7 µM each time.
Turning to `CC[C@H](CO)Nc1ccc(C(F)(F)F)c(-c2n[nH]c3ncccc23)n1` [Compound 86], the Ki on PKC theta kinase and at PKC Delta was greater than 0.7 µM each time.
